Reference: US20160000775A1, “USE OF HIGH DOSE LAQUINIMOD FOR TREATING MULTIPLE SCLEROSIS” (Teva Pharmaceutical Industries, Ltd., priority 2012, published 2016)
Where two headings read alike, the source gives them in different places.

Key:
[1] = in vivo; cited from earlier work
[2] = test system: subjects with relapsing remitting multiple sclerosis (RRMS); assay: Clinical trial MS-LAQ-305 (Phase III), oral laquinimod 0.6 mg/day or 1.2 mg/day vs placebo; format: in vivo, human
Description: A multinational, multicenter, randomized, double-blind, parallel-group, placebo-controlled study followed by an active treatment (clinical trial MS-LAQ-305) is conducted to evaluate the efficacy, safety and tolerability of two doses of oral administration of laquinimod (0.6 mg/day or 1.2 mg/day) laquinimod in subjects with relapsing remitting multiple sclerosis (RRMS). Study Duration • Screening period: up to 1 month. • Double-blind Placebo-controlled (DBPC) period (Period 1): At least 15 months, but not more than 24 months of once-daily, oral administration of either laquinimod 0.6 mg, 1.2 mg or matching oral placebo. DBPC period for all subjects is declared closed when all ongoing enrolled subjects complete at least 15 months of treatment. • Active-treatment (AT) period (Period 2): In this period (24 months), subjects who are assigned to either 0.6 mg or 1.2 mg daily oral laquinimod during the DBPC period continue with the same treatment assignment, whereas those who are assigned to placebo receive 1.2 mg daily oral laquinimod. Eligible subjects (approximately 1,800) are randomized in a 1:1:1 ratio into one of the following treatment arms: • 1. Laquinimod 0.6 mg: two capsules, one containing 0.6 mg laquinimod and the other containing matching placebo, administered orally once daily. • 2. Laquinimod 1.2 mg: two capsules containing 0.6 mg laquinimod administered orally once daily. • 3. Matching placebo: two capsules containing placebo (matching to the 0.6 mg) administered orally once daily. The study comprises of two treatment periods, Double-blind Placebo-controlled (DBPC) and Active-treatment (AT). Subjects who complete 24 months on study drug in Period 1 or complete at least 15 months on study drug when Period 1 is declared closed continue on to Period 2. The following assessments are performed at the specified time points: • 1. Vital signs are measured at each study visit. • 2. A physical examination is performed at months -1 (screening), 0 (baseline) 1, 3, 6, and every 6 months thereafter, ETD (if applicable) and until completion visit of Period 1. During Period 2, a physical examination is performed at months 0AT (baseline, completion visit of Period 1), 1AT, 3AT, 6AT and every 6 months thereafter, until completion/ETD of Period 2. • 3. The following safety clinical laboratory tests are performed: • (a) Complete blood count (CBC) with differential-at all scheduled visits during Periods 1 and 2. • (b) Serum chemistry (including electrolytes, liver enzymes, urea, creatinine, calculated Glomerular Filtration Rate (GFR)-at screening and prior to each MRI scan, glucose, total protein, albumin, direct and total bilirubin and pancreatic amylase)-at all scheduled visits during the DBPC and AT periods. Calculated Glomerular Filtration Rate (GFR) is done at screening and prior to each MRI scan in both study periods. • (c) Lipid profile (total cholesterol, HDL, LDL, triglycerides)-at baseline and every 12 months during the DBPC and AT periods. • (d) Urinalysis-at the screening visit. • (e) Serum β-hCG (human choriogonadotropin beta) in women of child-bearing potential-at each scheduled study visit during the DBPC and AT periods. • (f) Urine β-hCG test in women of child-bearing potential-at baseline (month 0) and at all scheduled visits during the DBPC and AT periods. • (g) Starting after visit Month 3, between scheduled visits, a rapid urine β-hCG test is performed in women of child-bearing potential every 28 (±2) days. The subject is contacted within 72 hours after the scheduled test is performed and asked specific questions regarding the test. In case of suspected pregnancy (positive urine β-hCG test result) the caller instructs the subject to make sure that the study drug has been discontinued and the subject arrives at the site as soon as possible (within 10 days) with all study drugs-during the DBPC and AT periods. • 4. […]

[3] = test system: MS; conditions: 0.3 mg/day oral (Comi, 2007); cited from earlier work
[4] = test system: subjects with RRMS; assay: BRAVO Phase III clinical trial, laquinimod 0.6 mg over placebo with reference arm IFN-β-1a (Avonex®); format: in vivo, human; conditions: vs placebo, 24 months
Description: ALLEGRO and BRAVO are two clinical trials reported in, e.g., PCT International Application Publication No. WO/2010/147665 ([…] et al.). […] The primary endpoint was ARR. Secondary endpoints were Brain atrophy, time to EDSS progression confirmed at 3 months and MSFC z-score. […] One of the basic assumptions used to assess the sample size for the study was that treatment with laquinimod will reduce the patient population ARR by 25% or more when compared to the placebo group.

[5] = test system: relapsing MS; conditions: cited from earlier work
[6] = test system: subjects with RRMS; assay: ALLEGRO Phase III clinical trial, laquinimod 0.6 mg over placebo, double-blind; format: in vivo, human; conditions: laquinimod 0.6 mg vs placebo, 24 months
Description: ALLEGRO and BRAVO are two clinical trials reported in, e.g., PCT International Application Publication No. WO/2010/147665 ([…] et al.). ALLEGRO was a study performed in subjects with RRMS to assess the efficacy, safety and tolerability of laquinimod 0.6 mg over placebo in a double-blind design. The treatment duration in this study was 24 months and it enrolled 1,106 patients equally distributed between laquinimod 0.6 mg and placebo arms. The primary endpoint was annualized relapse rate (ARR). Secondary endpoints were gadolinium-enhancing (GdE)-T1 and new-T2 lesions, time to Expanded Disability Status Scale (EDSS) progression confirmed at 3 months and multiple sclerosis functional composite (MSFC) z-score. In ALLEGRO the primary endpoint (ARR) and three key secondary endpoints were met.

[7] = daily oral 1.2 mg compared to 0.6 mg laquinimod or placebo
[8] = corrected post-hoc analysis with two baseline MRI covariates

**Q.** With `CCN(C(=O)c1c(O)c2c(Cl)cccc2n(C)c1=O)c1ccccc1` [Laquinimod, laquinimod] as the compound, how does the Oral bioavailability [1] read?
**A.** The Oral bioavailability was “high”.

**Q.** What about the “Efficacy in treating RRMS patients with respect to all endpoints” value ([2]; 1.2 mg/day compared to 0.6 mg/day laquinimod) of the same compound?
**A.** The value was “improved efficacy”.

**Q.** And the “Fatigue and functional status” value ([2]; 1.2 mg/day compared to 0.6 mg/day laquinimod or placebo)?
**A.** Its value is “maintained or improved”.

**Q.** What about the “Time to first confirmed relapse” value ([2]; daily oral 1.2 mg compared to 0.6 mg laquinimod and placebo) of the same compound?
**A.** Its value is “prolonged time to first confirmed relapse”.

**Q.** What about the “Accumulation of disability as measured by the MSFC score or Timed 25-foot walk (T25FW)” value [2, 7] of the same compound?
**A.** The value was “reduced the accumulation of disability”.

**Q.** What about the Annualized relapse rate [2, 7] of the same compound?
**A.** The Annualized relapse rate was “lower annualized relapse relate”.

**Q.** What about the “Brain atrophy, percent brain volume change from baseline to month 15” value [2, 7] of the same compound?
**A.** Its value is “reduced brain atrophy”.

**Q.** And the “Brain atrophy, percent change in brain volume from baseline to month 24” value [2, 7]?
**A.** The value was “reduced brain atrophy”.

**Q.** And the “Functional status and general health, Short-Form general health survey (SF-36)” value [2, 7]?
**A.** Its value is “improved functional status and general health”.

**Q.** What about the “MRI-monitored disease activity (enhancing T1, new hypointense T1, new T2 lesion numbers and lesion volume changes)” value [2, 7] of the same compound?
**A.** Its value is “reduced MRI-monitored disease activity”.

**Q.** What about the Neuroprotection [2, 7] of the same compound?
**A.** Its Neuroprotection is “more effective in providing neuroprotection”.

**Q.** What about the “Number of confirmed relapses” value [2, 7] of the same compound?
**A.** Its value is “reduced number of confirmed relapses”.

**Q.** What about the “Symbol Digit Modalities Test (SDMT) score” value [2, 7] of the same compound?
**A.** Its value is “improved Symbol Digit Modalities Test (SDMT) score”.

**Q.** What about the “Time to Confirmed Disease Progression (CDP)” value [2, 7] of the same compound?
**A.** Its value is “prolonged time to CDP”.

**Q.** What about the “MRI and clinical effect as compared to placebo” value [3] of the same compound?
**A.** The value was “neither MRI nor clinical effect”.

**Q.** What about the “ARR % reduction, Corrected” value [4, 8] of the same compound?
**A.** The value was 21.3%.

**Q.** And the “Brain Atrophy % reduction, Corrected” value [4, 8]?
**A.** Its value is 27.4%.

**Q.** What about the “Cumulative number of GdE T1 lesions % reduction, Corrected” value [4, 8] of the same compound?
**A.** Its value is 21.7%.

**Q.** And the “Cumulative number of new T2 lesions (exploratory endpoint) % reduction, Corrected” value [4, 8]?
**A.** Its value is 18.7%.

**Q.** And the “EDSS Progression (3 m confirmation) % reduction, Corrected” value [4, 8]?
**A.** Its value is 33.5%.

**Q.** And the “MSFC % reduction, Corrected” value [4, 8]?
**A.** The value was 77.1%.

**Q.** What about the “ARR % reduction, Corrected” value ([4]; corrected post-hoc analysis with two baseline MRI covariates, listed as laquinimod) of the same compound?
**A.** The value was 21.3%.

**Q.** What about the “ARR % reduction, Original” value ([4]; original analysis) of the same compound?
**A.** Its value is 17.7%.

**Q.** What about the “Brain Atrophy % reduction, Original” value ([4]; original analysis) of the same compound?
**A.** The value was 27.6%.

**Q.** What about the “Cumulative number of GdE T1 lesions % reduction, Original” value ([4]; original analysis) of the same compound?
**A.** The value was 21.5%.

**Q.** What about the “Cumulative number of new T2 lesions (exploratory endpoint) % reduction, Original” value ([4]; original analysis) of the same compound?
**A.** Its value is 16.5%.

**Q.** What about the “EDSS Progression (3 m confirmation) % reduction, Original” value ([4]; original analysis) of the same compound?
**A.** Its value is 31.3%.

**Q.** And the “MSFC % reduction, Original” value ([4]; original analysis)?
**A.** Its value is 77.7%.

**Q.** And the “ARR % reduction, Original” value ([4]; original analysis, listed as laquinimod)?
**A.** The value was 17.7%.

**Q.** And the “Development of active MRI lesions” value ([5]; 0.3 mg/day oral, relapsing MS (RRMS and SPMS) (Polman, 2005))?
**A.** Its value is “reduce development of active MRI lesions”.

**Q.** And the “Development of active MRI lesions” value ([5]; relapsing MS, dose not stated (Polman, 2005))?
**A.** The value was “reduce development of active MRI lesions”.

**Q.** What about the ARR % reduction [6] of the same compound?
**A.** Its ARR % reduction is 23%.

**Q.** And the “Brain Atrophy (exploratory endpoint) % reduction” value [6]?
**A.** Its value is 32.8%.

**Q.** What about the “Cumulative number of GdE T1 lesions % reduction” value [6] of the same compound?
**A.** The value was 37%.

**Q.** What about the “Cumulative number of new T2 lesions % reduction” value [6] of the same compound?
**A.** The value was 30%.

**Q.** And the “EDSS Progression (3 m confirmation) % reduction” value [6]?
**A.** Its value is 36%.

**Q.** And the “MSFC z-score % reduction” value [6]?
**A.** The value was 51%.
